Test results reported in the supplement of paper PMC10307832.

Legend:
Assay in all cases: relative viability (nuclei count vs DMSO), 5 days (fraction); higher = more cells survive
Linsitinib + Foretinib = compound: C[C@]1(O)C[C@@H](c2nc(-c3ccc4ccc(-c5ccccc5)nc4c3)c3c(N)nccn32)C1 [Linsitinib] + COc1cc2c(Oc3ccc(NC(=O)C4(C(=O)Nc5ccc(F)cc5)CC4)cc3F)ccnc2cc1OCCCN1CCOCC1 [Foretinib] (partner 0.25 µM)
Summary of the method: (§1)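 Values are medians from duplicate plates. Each reflects relative viability, defined as the nuclei count of treated wells over that of vehicle wells. Lung cancer cell lines in 1536-well plates were pin-tool dosed one day after seeding with one drug alone or with a fixed anchor-drug dose plus five library-drug doses (not always all listed) in √10 steps, then fixed, stained and imaged at 4× after 5 days.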

Ispinesib + Pemetrexed = compound: Cc1ccc(C(=O)N(CCCN)[C@@H](c2nc3cc(Cl)ccc3c(=O)n2Cc2ccccc2)C(C)C)cc1 [Ispinesib] + Nc1nc2[nH]cc(CCc3ccc(C(=O)N[C@@H](CCC(=O)O)C(=O)O)cc3)c2c(=O)[nH]1 [Pemetrexed] (partner 0.2 µM)
Summary of the method: as §1

Ispinesib + Linsitinib = compound: Cc1ccc(C(=O)N(CCCN)[C@@H](c2nc3cc(Cl)ccc3c(=O)n2Cc2ccccc2)C(C)C)cc1 [Ispinesib] + C[C@]1(O)C[C@@H](c2nc(-c3ccc4ccc(-c5ccccc5)nc4c3)c3c(N)nccn32)C1 [Linsitinib] (partner 1 µM)
Summary of the method: as §1

Linsitinib + Palbociclib = compound: C[C@]1(O)C[C@@H](c2nc(-c3ccc4ccc(-c5ccccc5)nc4c3)c3c(N)nccn32)C1 [Linsitinib] + CC(=O)c1c(C)c2cnc(Nc3ccc(N4CCNCC4)cn3)nc2n(C2CCCC2)c1=O [Palbociclib] (partner 0.5 µM)
Summary of the method: as §1

| Cell Line | relative viability (Linsitinib + Foretinib; first compound 0.01 µM) | relative viability (Linsitinib + Foretinib; first compound 0.03162 µM) | relative viability (Linsitinib + Foretinib; first compound 0.1 µM) | relative viability (Linsitinib + Foretinib; first compound 0.3162 µM) | relative viability (Linsitinib + Foretinib; first compound 1 µM) | relative viability (Ispinesib + Pemetrexed; first compound 0.001 µM) | relative viability (Ispinesib + Pemetrexed; first compound 0.003162 µM) | relative viability (Ispinesib + Pemetrexed; first compound 0.01 µM) | relative viability (Ispinesib + Pemetrexed; first compound 0.03162 µM) | relative viability (Ispinesib + Pemetrexed; first compound 0.1 µM) | relative viability (Ispinesib + Linsitinib; first compound 0.001 µM) | relative viability (Ispinesib + Linsitinib; first compound 0.003162 µM) | relative viability (Ispinesib + Linsitinib; first compound 0.01 µM) | relative viability (Ispinesib + Linsitinib; first compound 0.03162 µM) | relative viability (Ispinesib + Linsitinib; first compound 0.1 µM) | relative viability (Linsitinib + Palbociclib; first compound 0.01 µM) | relative viability (Linsitinib + Palbociclib; first compound 0.03162 µM) | relative viability (Linsitinib + Palbociclib; first compound 0.1 µM) | relative viability (Linsitinib + Palbociclib; first compound 0.3162 µM) | relative viability (Linsitinib + Palbociclib; first compound 1 µM) |
| --- | --- | --- | --- | --- | --- | --- | --- | --- | --- | --- | --- | --- | --- | --- | --- | --- | --- | --- | --- | --- |
| HCC-366 | 0.95 | 0.996 | 0.907 | 0.932 | 0.956 | 0.18 | 0.189 | 0.176 | 0.153 | 0.0222 | 1.13 | 0.595 | 1.04 | 0.719 | 0.167 | 0.441 | 0.394 | 0.359 | 0.303 | 0.328 |
| HCC-827 | 1.07 | 1.1 | 1.02 | – | 0.966 | 0.25 | 0.259 | 0.274 | 0.248 | 0.235 | 0.955 | 1.01 | 1.01 | 0.959 | 0.892 | 0.408 | 0.572 | 0.468 | – | 0.529 |
| HOP-62 | 1.09 | 1.05 | 1.06 | – | 1.16 | 0.319 | 0.327 | 0.34 | 0.26 | 0.117 | 0.99 | 1.14 | 0.952 | 1.05 | 0.742 | 0.435 | 0.424 | 0.49 | – | 0.45 |
| IA-LM | 1.12 | 1.06 | 0.867 | 0.783 | 1.07 | – | – | – | – | – | 0.493 | 0.567 | 0.996 | 0.549 | 0.158 | – | – | – | – | – |
| LC-2-ad | 0.983 | 0.979 | 0.858 | 0.738 | 0.671 | 0.288 | 0.259 | 0.262 | 0.23 | 0.149 | 0.842 | 0.845 | 0.971 | 0.556 | 0.184 | 0.412 | 0.392 | 0.483 | 0.433 | 0.423 |
| LCLC-97TM1 | 0.971 | 0.95 | 0.879 | 0.832 | 0.823 | 0.186 | 0.168 | 0.173 | 0.167 | 0.0653 | 0.205 | 0.152 | 0.175 | 0.262 | 0.169 | 0.223 | 0.205 | 0.191 | 0.195 | 0.212 |
| LCLC-103H | 0.75 | 0.771 | 0.751 | 0.709 | 0.704 | 0.475 | 0.474 | 0.446 | 0.449 | 0.352 | 1.12 | 1.25 | 1.21 | 1.04 | 1.02 | 0.435 | 0.414 | 0.427 | 0.367 | 0.486 |
| LK-2 | 1.27 | 1.24 | 1.21 | 1.08 | 1.22 | 0.231 | 0.29 | 0.294 | 0.269 | 0.124 | 0.805 | 0.328 | 0.521 | 0.435 | 0.267 | 0.968 | 0.58 | 0.615 | 0.371 | 0.554 |
| NCI-H522 | – | – | – | – | – | 0.961 | 0.975 | 0.859 | 0.586 | 0.364 | – | – | – | – | – | 1.01 | 0.83 | 1.04 | 0.673 | 0.977 |
